One data set has as its system rats. The data set is described as follows: Reversal of the effect of the mGluR2 PAM JNJ-42153605-induced inhibition of scopolamine-induced hyperlocomotion. It counts as in vivo, rat. To be noted: for ED50: Rattus norvegicus, rats, PO, 60 min pretreatment, JNJ-42153605 20 mg/kg i.v. + scopolamine 0.16 mg/kg i.v., criterion total distance >1500 cm in 30 min, read-out: SCOP JNJ-42153605 ED50. Here is the method: Motor activity was measured in microprocessor-based motor activity arenas (closed gray PVC cylinders with a height of 39 cm and a diameter of 31 cm). Each arena was placed on an infrared LED (8×8 LEDs) lit box (white PVC squared box; 40×40 cm^2; height 12.5 cm. An infrared-sensitive tube camera and a white light source were mounted to the ceiling above the observation chamber to track the animal. […] Noldus, Wageningen, The Netherlands). The intensity of the light within the activity cages (measured in the centre at the level of the floor) ranged between 4 and 8 LUX. The rats were pretreated with test compound or vehicle at 60 min before the start of the activity recordings and placed into individual cages. […] WO2010/130424; Cid et al. J. Med.

A further data set concerns the target T1, human mGlu2 receptor (Homo sapiens, UniProt Q14416).
T1 construct: expressed in transfected cells; host or cells: CHO cells (membrane preparation)
As to the kind of experiment: [35S]GTPγS binding assay, mGluR2 negative allosteric modulation. Format: biochemical. To be noted: for Emax: maximal % inhibition relative to the control glutamate response (EC80 glutamate), read-out: GTPγS-hmGluR2 anGT Emax; for IC50: membranes from CHO cells transfected with human mGlu2 receptor, glutamate ~EC80 (60 μM), read-out: GTPγS-hmGluR2 anGT pIC50 (converted). Here is the method: Total reaction volume was 200 μl. […] Membrane-bound radioactivity was counted in a Topcount.

Setting [1] is: historical series of solvent-pretreated control rats, first 30 min.

T1 sequence (Q14416 19-872): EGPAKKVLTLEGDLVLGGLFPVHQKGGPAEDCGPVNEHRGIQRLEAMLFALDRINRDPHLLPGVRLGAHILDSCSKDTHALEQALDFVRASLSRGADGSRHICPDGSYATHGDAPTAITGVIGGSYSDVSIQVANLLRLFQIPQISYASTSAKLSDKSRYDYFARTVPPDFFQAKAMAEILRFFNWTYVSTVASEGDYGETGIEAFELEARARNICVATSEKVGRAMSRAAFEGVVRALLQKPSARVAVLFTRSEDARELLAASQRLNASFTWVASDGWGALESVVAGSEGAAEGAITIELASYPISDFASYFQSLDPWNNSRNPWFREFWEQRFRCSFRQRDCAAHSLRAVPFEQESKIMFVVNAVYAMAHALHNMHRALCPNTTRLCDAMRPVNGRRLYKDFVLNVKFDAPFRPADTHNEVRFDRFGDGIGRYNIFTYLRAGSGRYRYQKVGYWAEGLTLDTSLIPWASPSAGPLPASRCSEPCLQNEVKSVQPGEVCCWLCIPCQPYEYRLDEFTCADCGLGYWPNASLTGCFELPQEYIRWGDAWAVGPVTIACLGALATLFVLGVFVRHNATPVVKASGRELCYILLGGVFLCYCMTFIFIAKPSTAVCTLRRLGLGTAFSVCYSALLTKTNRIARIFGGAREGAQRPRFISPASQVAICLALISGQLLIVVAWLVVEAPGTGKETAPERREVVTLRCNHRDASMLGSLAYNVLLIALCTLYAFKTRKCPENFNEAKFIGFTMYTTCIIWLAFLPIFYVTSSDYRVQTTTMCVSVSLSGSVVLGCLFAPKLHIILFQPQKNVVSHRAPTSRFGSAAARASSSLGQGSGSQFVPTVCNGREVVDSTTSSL

The molecule `C[C@H]1CN(c2ccc(C(F)(F)F)cc2)C(=O)c2c(-c3cc(-c4ccc(N)nc4)on3)cnn21` [Co. No. 2, (7S)-3-[5-(6-Amino-3-pyridyl)isoxazol-3-yl]-7-methyl-5-[4-(trifluoromethyl)phenyl]-6,7-dihydropyrazolo[1,5-a]pyrazin-4-one] displayed a melting point of 233.79 °C. Also, the ED50 in the data set with rats amounted to 0.5 mg/kg. Further, at human mGlu2 receptor, the Emax was 103% and the IC50 was 2.04 nM.
Take `C[C@H]1CN(c2ccc(C(F)(F)F)cc2)C(=O)c2c(-c3cc(-c4cccnc4)on3)cnn21` [Co. No. 5, (7S)-7-methyl-3-[5-(3-pyridyl)isoxazol-3-yl]-5-[4-(trifluoromethyl)phenyl]-6,7-dihydropyrazolo[1,5-a]pyrazin-4-one]: the melting point amounted to 215.1 °C. The ED50 with rats was 0.51 mg/kg. At human mGlu2 receptor, the Emax worked out at 106% and the IC50 was 11.2 nM.
`C[C@H]1CN(c2ccc(C(F)(F)F)c(Cl)c2)C(=O)c2c(-c3cc(-c4ccccn4)on3)cnn21` [Co. No. 10, (7S)-5-[3-chloro-4-(trifluoromethyl)phenyl]-7-methyl-3-[5-(2-pyridyl)isoxazol-3-yl]-6,7-dihydropyrazolo[1,5-a]pyrazin-4-one]: the melting point stood at 188.25 °C. Besides, the ED50 with rats was greater than 0.63 mg/kg. Further, on human mGlu2 receptor, the Emax came out at 106% and the IC50 is 4.79 nM.
For the molecule `C[C@H]1CN(c2ccc(C(F)(F)F)c(Cl)c2)C(=O)c2c(-c3cc(-c4cccnc4)on3)cnn21` [Co. No. 11, (7S)-5-[3-chloro-4-(trifluoromethyl)phenyl]-7-methyl-3-[5-(3-pyridyl)isoxazol-3-yl]-6,7-dihydropyrazolo[1,5-a]pyrazin-4-one], the melting point worked out at 156.64 °C. For the same molecule, the ED50 in the data set on rats is greater than 0.63 mg/kg. In addition, on human mGlu2 receptor, the Emax was found to be 110% and the IC50 is 2.45 nM.
Regarding `Cc1cncc(-c2cc(-c3cnn4c3C(=O)N(c3ccc(C(F)(F)F)c(Cl)c3)C[C@@H]4C)no2)c1` [Co. No. 12, (7S)-5-[3-chloro-4-(trifluoromethyl)phenyl]-7-methyl-3-[5-(5-methyl-3-pyridyl)isoxazol-3-yl]-6,7-dihydropyrazolo[1,5-a]pyrazin-4-one], the melting point is 168.58 °C. In addition, in the data set on rats, the ED50 is greater than 0.63 mg/kg. Besides, at human mGlu2 receptor, the Emax is 108% and the IC50 was 6.17 nM.
With `Cc1cc(N2C[C@H](C)n3ncc(-c4cc(-c5cccnc5)on4)c3C2=O)ccc1C(F)(F)F` [Co. No. 15, (7S)-7-methyl-5-[3-methyl-4-(trifluoromethyl)phenyl]-3-[5-(3-pyridyl)isoxazol-3-yl]-6,7-dihydropyrazolo[1,5-a]pyrazin-4-one], the melting point worked out at 120.21 °C. Also, the ED50 in the data set on rats was greater than 0.63 mg/kg. For the same molecule, on human mGlu2 receptor, the Emax is 108% and the IC50 is 5.5 nM.
The matching figures for `Cc1ccncc1-c1cc(-c2cnn3c2C(=O)N(c2ccc(C(F)(F)F)cc2)C[C@@H]3C)no1` [Co. No. 18, (7S)-7-Methyl-3-[5-(4-methyl-3-pyridyl)isoxazol-3-yl]-5-[4-(trifluoromethyl)phenyl]-6,7-dihydropyrazolo[1,5-a]pyrazin-4-one]: 197.33 °C, 0.51 mg/kg, 109% and 2.24 nM.
`Cc1ccncc1-c1cc(-c2cnn3c2C(=O)N(c2ccc(C(F)(F)F)c(Cl)c2)C[C@@H]3C)no1` [Co. No. 20, (7S)-5-[3-chloro-4-(trifluoromethyl)phenyl]-7-methyl-3-[5-(4-methyl-3-pyridyl)isoxazol-3-yl]-6,7-dihydropyrazolo[1,5-a]pyrazin-4-one] yielded a melting point of 149.63 °C. Also, in the data set on rats, the ED50 was found to be 0.51 mg/kg. Besides, at human mGlu2 receptor, the Emax came out at 113% and the IC50 is 1.41 nM.
`C[C@H]1CN(c2ccc(C(F)(F)F)c(Cl)c2)C(=O)c2c(-c3cc(-c4cncc(F)c4)on3)cnn21` [Co. No. 21, (7S)-5-[3-chloro-4-(trifluoromethyl)phenyl]-3-[5-(5-fluoro-3-pyridyl)isoxazol-3-yl]-7-methyl-6,7-dihydropyrazolo[1,5-a]pyrazin-4-one]: the melting point came out at 197.03 °C. Moreover, in the data set with rats, the ED50 was greater than 0.63 mg/kg. Also, at human mGlu2 receptor, the Emax stood at 103% and the IC50 is 6.61 nM.
The matching figures for `Cc1ccncc1-c1cc(-c2cnn3c2C(=O)N(c2ccc(C(F)(F)F)c(C)c2)C[C@@H]3C)no1` [Co. No. 22, (7S)-7-methyl-3-[5-(4-methyl-3-pyridyl)isoxazol-3-yl]-5-[3-methyl-4-(trifluoromethyl)phenyl]-6,7-dihydropyrazolo[1,5-a]pyrazin-4-one]: 171.25 °C, greater than 0.63 mg/kg, 110% and 2.09 nM.
With `CN1[C@@H]2C[C@@H](OC(=O)[C@H](CO)c3ccccc3)C[C@H]1[C@@H]1O[C@@H]12` [Scopolamine, scopolamine, reference compound], in the data set with rats (setting [1]), the “Median total distance travelled” value amounted to 7246 cm, the “rats travelling >1500 cm” value is given as 100% and the “rats travelling >4400 cm” value worked out at 95.8%.

(Values after patent publication US10017514B2, “6,7-dihydropyrazolo[1,5-α]pyrazin-4(5H)-one compounds and their use as negative allosteric modulators of mGluR2 receptors” (Janssen Pharmaceutica NV, priority 2014, dated 2018).)
